Columns and labels:
[1] = target: T1, human type 1 5α-reductase (Homo sapiens, UniProt P18405); assay: 5α-reductase in vitro inhibitory activity, human type 1
T1 sequence (P18405 1-259): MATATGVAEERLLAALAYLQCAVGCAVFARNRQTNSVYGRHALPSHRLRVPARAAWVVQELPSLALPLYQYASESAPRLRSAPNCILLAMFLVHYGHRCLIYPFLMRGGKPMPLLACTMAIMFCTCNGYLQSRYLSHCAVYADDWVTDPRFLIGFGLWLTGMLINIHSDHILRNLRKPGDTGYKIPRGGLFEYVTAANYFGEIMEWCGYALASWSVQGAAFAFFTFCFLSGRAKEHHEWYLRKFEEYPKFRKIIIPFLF

[2] = target: T2, human type 2 5α-reductase (Homo sapiens, UniProt P31213); assay: 5α-reductase in vitro inhibitory activity, human type 2
T2 sequence (P31213 1-254): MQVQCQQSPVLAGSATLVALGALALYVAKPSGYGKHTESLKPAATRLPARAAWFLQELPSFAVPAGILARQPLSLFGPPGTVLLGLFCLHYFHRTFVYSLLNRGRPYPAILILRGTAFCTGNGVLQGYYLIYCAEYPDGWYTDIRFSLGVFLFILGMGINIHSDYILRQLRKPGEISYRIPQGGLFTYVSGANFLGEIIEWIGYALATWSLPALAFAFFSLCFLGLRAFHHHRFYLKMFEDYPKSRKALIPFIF
Description: Microsomes were prepared by homogenization of the tissue or cells, followed by differential centrifugation of the homogenate. […] Corresponding incubations were carried out with no test compound as a control study.
The percentage of conversion of testosterone to DHT in the presence of test compounds compared to the corresponding conversion in the control study was estimated using high pressure liquid chromatography (HPLC) with radiochemical detection.

SMILES | IC50 [1] [nM] | IC50 [2] [nM]
C[C@]12CC[C@H]3[C@@H](CNC4=CC(=O)CC[C@@]43C)[C@@H]1CC[C@@H]2C(=O)NCCSc1ccccc1 [Compound 23, 17β-N-2-(Phenylthio)ethyl-carbamoyl-6-azaandrost-4-en-3-one] | 10 to 100 | < 10
C[C@]12CC[C@H]3[C@@H](CNC4=CC(=O)CC[C@@]43C)[C@@H]1CC[C@@H]2C(=O)NC(c1ccc(F)cc1)c1ccc(F)cc1 [Compound 24, 17β-N-Bis-(4-fluorophenyl)methyl-carbamoyl-6-azaandrost-4-en-3-one] | 10 to 100 | –
C[C@]12CC[C@H]3[C@@H](CNC4=CC(=O)CC[C@@]43C)[C@@H]1CC[C@@H]2C(=O)c1ccc(F)cc1F [Compound 26, 17β-(1-Oxo-1-(2,4-difluorophenyl)methyl)-6-azaandrost-4-en-3-one] | 10 to 100 | < 10
C[C@]12CC[C@H]3[C@@H](CNC4=CC(=O)CC[C@@]43C)[C@@H]1CC[C@@H]2C(=O)N1CCC(Cc2ccccc2)CC1 [Compound 37, 17β-N-(4-Benzyl)piperidyl-carbamoyl-6-azaandrost-4-en-3-one] | 10 to 100 | < 10
CC(C)(C)N(O)C(=O)[C@H]1CC[C@H]2[C@@H]3CNC4=CC(=O)CC[C@]4(C)[C@H]3CC[C@]12C [Compound 41, 17β-N-Hydroxy-N-t-butyl-carbamoyl-6-azaandrost-4-en-3-one] | 10 to 100 | –
CCc1c(Cl)cc(Cl)c(CC)c1NC(=O)[C@H]1CC[C@H]2[C@@H]3CNC4=CC(=O)CC[C@]4(C)[C@H]3CC[C@]12C [Compound 54, 17β-N-(2,6-Diethyl-3,5-dichloro)phenyl-carbamoyl-6-azaandrost-4-en-3-one] | 10 to 100 | < 10
CCc1ccc(Cl)c(CC)c1NC(=O)[C@H]1CC[C@H]2[C@@H]3CNC4=CC(=O)CC[C@]4(C)[C@H]3CC[C@]12C [Compound 55, 17β-N-(2,6-Diethyl-3-chloro)phenyl-carbamoyl-6-azaandrost-4-en-3-one] | 10 to 100 | < 10
CC(C)(C)c1ccccc1NC(=O)[C@H]1CC[C@H]2[C@@H]3CNC4=CC(=O)CC[C@]4(C)[C@H]3CC[C@]12C [Compound 56, 17β-N-(2-t-Butyl)phenyl-carbamoyl-6-azaandrost-4-en-3-one] | 10 to 100 | < 10
C[C@]12CC[C@H]3[C@@H](CNC4=CC(=O)CC[C@@]43C)[C@@H]1CC[C@@H]2C(=O)Nc1cc(C(F)(F)F)cc(C(F)(F)F)c1 [Compound 57, 17β-N-(3,5-Ditrifluoromethyl)phenyl-carbamoyl-6-azaandrost-4-en-3-one] | 10 to 100 | 10 to 100
C[C@]12CC[C@H]3[C@@H](CNC4=CC(=O)CC[C@@]43C)[C@@H]1CC[C@@H]2C(=O)Nc1c(Cl)cc(Cl)cc1Cl [Compound 58, 17β-N-(2,4,6-Trichloro)phenyl-carbamoyl-6-azaandrost-4-en-3-one] | 10 to 100 | < 10
CC1(C)CC(NC(=O)[C@H]2CC[C@H]3[C@@H]4CNC5=CC(=O)CC[C@]5(C)[C@H]4CC[C@]23C)CC(C)(C)C1 [Compound 59, 17β-N-(3,5-Tetramethyl)cyclohexyl-carbamoyl-6-azaandrost-4-en-3-one] | > 100 | 10 to 100
CC(C)c1cc(C(C)C)c(C(=O)[C@H]2CC[C@H]3[C@@H]4CNC5=CC(=O)CC[C@]5(C)[C@H]4CC[C@]23C)c(C(C)C)c1 [Compound 60, 17β-(1-Oxo-1-((2,4,6-tri-i-propyl)phenyl)methyl)-6-azaandrost-4-en-3-one] | > 100 | 10 to 100
C[C@]12CC[C@H]3[C@@H](CNC4=CC(=O)CC[C@@]43C)[C@@H]1CC[C@@H]2C(=O)Nc1cc(C(F)(F)F)ccc1Br [Compound 61, 17β-N-(2-Bromo-5-trifluoromethyl)phenyl-carbamoyl-6-azaandrost-4-en-3-one] | 10 to 100 | < 10
Cc1cccc(C(C)(C)C)c1NC(=O)[C@H]1CC[C@H]2[C@@H]3CNC4=CC(=O)CC[C@]4(C)[C@H]3CC[C@]12C [Compound 62, 17β-N-(2-t-Butyl-6-methyl)phenyl-carbamoyl-6-azaandrost-4-en-3-one] | > 100 | < 10
CC(C)(NC(=O)[C@H]1CC[C@H]2[C@@H]3CNC4=CC(=O)CC[C@]4(C)[C@H]3CC[C@]12C)c1ccccc1 [Compound 63, 17β-N-(1-Methyl-1-phenyl)ethyl-carbamoyl-6-azaandrost-4-en-3-one] | > 100 | < 10
C[C@]12CC[C@H]3[C@@H](CNC4=CC(=O)CC[C@@]43C)[C@@H]1CC[C@@H]2C(=O)NC1(c2ccc(Cl)cc2)CCCC1 [Compound 64, 17β-N-1-(4-Chlorophenyl)cyclopentyl-carbamoyl-6-azaandrost-4-en-3-one] | < 10 | < 10

SMILES | IC50 [1] [nM] | IC50 [2] [nM]
CC(C)C(NC(=O)[C@H]1CC[C@H]2[C@@H]3CNC4=CC(=O)CC[C@]4(C)[C@H]3CC[C@]12C)c1ccc(Cl)cc1 (stereo partly drawn) [Compound 65, 17β-N-(1-(4-Chlorophenyl)-2-methyl)propyl-carbamoyl-6-azaandrost-4-en-3-one] | 10 to 100 | < 10
CC(NC(=O)[C@H]1CC[C@H]2[C@@H]3CNC4=CC(=O)CC[C@]4(C)[C@H]3CC[C@]12C)(c1ccc(Cl)cc1)c1ccc(Cl)cc1 [Compound 66, 17β-N-(1,1-Di-4-chlorophenyl)ethyl-carbamoyl-6-azaandrost-4-en-3-one] | > 100 | < 10
CC(C)(C)c1ccc(C(NC(=O)[C@H]2CC[C@H]3[C@@H]4CNC5=CC(=O)CC[C@]5(C)[C@H]4CC[C@]23C)c2ccccc2)cc1 (stereo partly drawn) [Compound 67, 17β-N-(1 -Phenyl-1-(4-t-butyl)phenyl)methyl-carbamoyl-6-azaandrost-4-en-3-one] | > 100 | < 10
C[C@]12CC[C@H]3[C@@H](CNC4=CC(=O)CC[C@@]43C)[C@@H]1CC[C@@H]2C(=O)C1CC2CCC1C2 (stereo partly drawn) [Compound 68, 17β-(1-Oxo-1-(2-norbornyl)methyl)-6-azaandrost-4-en-3-one] | 10 to 100 | < 10
C[C@]12CC[C@H]3[C@@H](CNC4=CC(=O)CC[C@@]43C)[C@@H]1CC[C@@H]2C(=O)Nc1c(Br)cc(Cl)cc1Br [Compound 69, 17β-N-(2,6-Dibromo-4-chloro)phenyl-carbamoyl-6-azaandrost-4-en-3-one] | 10 to 100 | < 10
CCc1cc(Br)cc(CC)c1NC(=O)[C@H]1CC[C@H]2[C@@H]3CNC4=CC(=O)CC[C@]4(C)[C@H]3CC[C@]12C [Compound 70, 17β-N-(2,6-Diethyl-4-bromo)phenyl-carbamoyl-6-azaandrost-4-en-3-one] | 10 to 100 | < 10
CC(C)(C)c1ccc(NC(=O)[C@H]2CC[C@H]3[C@@H]4CNC5=CC(=O)CC[C@]5(C)[C@H]4CC[C@]23C)c(Br)c1 [Compound 71, 17β-N-(2-Bromo-4-t-butyl)phenyl-carbamoyl-6-azaandrost-4-en-3-one] | 10 to 100 | < 10
CC(C)(C)c1ccc(NC(=O)[C@H]2CC[C@H]3[C@@H]4CNC5=CC(=O)CC[C@]5(C)[C@H]4CC[C@]23C)c(Cl)c1 [Compound 72, 17β-N-(2-Chloro-4-t-butyl)phenyl-carbamoyl-6-azaandrost-4-en-3-one] | 10 to 100 | < 10
CC(C)(C)c1ccc(C(NC(=O)[C@H]2CC[C@H]3[C@@H]4CNC5=CC(=O)CC[C@]5(C)[C@H]4CC[C@]23C)C(C)(C)C)cc1 (stereo partly drawn) [Compound 73, 17β-N-(1-t-Butyl-1-(4-t-butylphenyl))methyl-carbamoyl-6-azaandrost-4-en-3-one] | < 10 | < 10
CC(C)(C)c1ccc(Br)cc1NC(=O)[C@H]1CC[C@H]2[C@@H]3CNC4=CC(=O)CC[C@]4(C)[C@H]3CC[C@]12C [Compound 74, 17β-N-(5-Bromo-2-t-butyl)phenyl-carbamoyl-6-azaandrost-4-en-3-one] | < 10 | < 10
CC(C)(C)c1ccc(Cl)cc1NC(=O)[C@H]1CC[C@H]2[C@@H]3CNC4=CC(=O)CC[C@]4(C)[C@H]3CC[C@]12C [Compound 75, 17β-N-(5-Chloro-2-t-butyl)phenyl-carbamoyl-6-azaandrost-4-en-3-one] | < 10 | < 10
CCc1cccc(CC)c1NC(=O)[C@H]1CC[C@H]2[C@@H]3CNC4=CC(=O)CC[C@]4(C)[C@H]3CC[C@]12C [Compound 76, 17β-N-(2,6-Diethyl)phenyl-carbamoyl-6-azaandrost-4-en-3-one] | 10 to 100 | < 10
CC(C)(C)c1cc(Br)ccc1NC(=O)[C@H]1CC[C@H]2[C@@H]3CNC4=CC(=O)CC[C@]4(C)[C@H]3CC[C@]12C [Compound 77, 17β-N-(4-Bromo-2-t-butyl)phenyl-carbamoyl-6-azaandrost-4-en-3-one] | < 10 | < 10
CC(C)(C)c1ccc(C#N)cc1NC(=O)[C@H]1CC[C@H]2[C@@H]3CNC4=CC(=O)CC[C@]4(C)[C@H]3CC[C@]12C [Compound 78, 17β-N-(2-t-Butyl-5-cyano)phenyl-carbamoyl-6-azaandrost-4-en-3-one] | 10 to 100 | < 10
Cc1ccc(Oc2ccc(C(F)(F)F)cc2NC(=O)[C@H]2CC[C@H]3[C@@H]4CNC5=CC(=O)CC[C@]5(C)[C@H]4CC[C@]23C)cc1 [Compound 79, 17β-N-(2-(O-4-Tolyl)-5-trifluoromethyl)phenyl-carbamoyl-6-azaandrost-4-en-3-one] | 10 to 100 | < 10

Source: patent publication EP0674651B1, “SUBSTITUTED 6-AZAANDROSTENONES” (priority 1992, dated 1994)
